In patent US20220356186A1, “PERK INHIBITING PYRROLOPYRIMIDINE COMPOUNDS” (HiberCell, Inc., priority 2019, published 2022):

Experiments:
select kinases = assay: KINOMEscan in vitro competition binding assay for select kinases
[1] = test system: GFP-eIF2α in HEK293 cells; assay: PERK cellular assay, TR-FRET in HEK293-EGFP-eIF2a cells after tunicamycin-induced ER stress; format: cell-based; conditions: HEK293-EGFP-eIF2a cells, tunicamycin 2 hours; read-out: Cellular eIF2α IC50
Summary of the method: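 Compounds were added 30 min before a 2 h tunicamycin ([…]) challenge of lentivirally made GFP-eIF2α HEK293 cells, 5000/well; lysate TR-FRET ratio was the read-out.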

[2] = target: T1, EIF2AK3 (PERK) catalytic domain (amino acids 536-1116) (Homo sapiens, UniProt Q9NZJ5); assay: PERK in vitro activity assay (isolated), TR-FRET kinase assay; format: biochemical; conditions: isolated PERK enzyme, 1.5 μM ATP; read-out: Biochemical IC50
T1 construct: EIF2AK3 (PERK) catalytic domain (amino acids 536-1116)
T1 sequence (Q9NZJ5 536-1116): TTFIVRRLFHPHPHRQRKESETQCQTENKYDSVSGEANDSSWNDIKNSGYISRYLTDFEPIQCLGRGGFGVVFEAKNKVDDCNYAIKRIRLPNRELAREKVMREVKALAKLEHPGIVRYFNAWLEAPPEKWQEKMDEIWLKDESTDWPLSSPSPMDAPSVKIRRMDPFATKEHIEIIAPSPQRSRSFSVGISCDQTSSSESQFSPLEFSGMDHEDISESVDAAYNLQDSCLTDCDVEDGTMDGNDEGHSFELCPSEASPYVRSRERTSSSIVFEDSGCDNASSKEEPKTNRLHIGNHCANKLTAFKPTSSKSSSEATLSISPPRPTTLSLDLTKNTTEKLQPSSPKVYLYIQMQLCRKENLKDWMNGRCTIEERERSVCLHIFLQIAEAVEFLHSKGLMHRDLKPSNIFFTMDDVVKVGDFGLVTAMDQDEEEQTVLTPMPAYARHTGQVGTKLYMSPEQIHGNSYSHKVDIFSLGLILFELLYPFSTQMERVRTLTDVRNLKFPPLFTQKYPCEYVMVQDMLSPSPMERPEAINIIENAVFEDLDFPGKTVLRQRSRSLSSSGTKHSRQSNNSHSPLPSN
Summary of the method: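 TR-FRET read-out: after EDTA stop (10 mM final), Tb-labelled phospho-eIF2a antibody (2 nM) for 90 min; IC50 via 4-parameter nonlinear fit. Reaction: PERK aa 536-1116, GFP-eIF2a 100-200 nM, HEPES pH 7.5 with MgCl2/EGTA/Brij-35, 45 min, room temperature, started by enzyme.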

For `Cc1nc(N)c2c(-c3ccc(NC(=O)C(O)c4cccc(F)c4)cc3C)cn(C)c2n1` (single isomer, unassigned) [Example 1, N-(4-(4-amino-2,7-dimethyl-7H-pyrrolo[2,3-d]pyrimidin-5-yl)-3-methylphenyl)-2-(3-fluorophenyl)-2-hydroxyacetamide], the “KINOMEscan competition binding, inhibition of AURKB” value (select kinases; kinase AURKB) was “No Inhibition (“No Inhibition” refers to less than 50% inhibition)”, the “KINOMEscan competition binding, inhibition of AXL” value (select kinases; kinase AXL) was “No Inhibition (“No Inhibition” refers to less than 50% inhibition)” and the “KINOMEscan competition binding, inhibition of BLK” value (select kinases; kinase BLK) was “No Inhibition (“No Inhibition” refers to less than 50% inhibition)”. For the same compound, the “KINOMEscan competition binding, inhibition of CAMK4” value (select kinases; kinase CAMK4) was “No Inhibition (“No Inhibition” refers to less than 50% inhibition)”, the “KINOMEscan competition binding, inhibition of CDK8” value (select kinases; kinase CDK8) was “No Inhibition (“No Inhibition” refers to less than 50% inhibition)” and the “KINOMEscan competition binding, inhibition of CDK11” value (select kinases; kinase CDK11) was “No Inhibition (“No Inhibition” refers to less than 50% inhibition)”. The “KINOMEscan competition binding, inhibition of CSF1R” value (select kinases; kinase CSF1R) was “No Inhibition (“No Inhibition” refers to less than 50% inhibition)”, the “KINOMEscan competition binding, inhibition of EIF2AK1” value (select kinases; kinase EIF2AK1) was “No Inhibition (“No Inhibition” refers to less than 50% inhibition)” and the “KINOMEscan competition binding, inhibition of EPHB6” value (select kinases; kinase EPHB6) was “No Inhibition (“No Inhibition” refers to less than 50% inhibition)”. For the same compound, the “KINOMEscan competition binding, inhibition of FLT3” value (select kinases; kinase FLT3) was “No Inhibition (“No Inhibition” refers to less than 50% inhibition)”, the “KINOMEscan competition binding, inhibition of HIPK4” value (select kinases; kinase HIPK4) was “No Inhibition (“No Inhibition” refers to less than 50% inhibition)” and the “KINOMEscan competition binding, inhibition of LOK” value (select kinases; kinase LOK) was “No Inhibition (“No Inhibition” refers to less than 50% inhibition)”. The “KINOMEscan competition binding, inhibition of MAP3K2” value (select kinases; kinase MAP3K2) was “No Inhibition (“No Inhibition” refers to less than 50% inhibition)”, the “KINOMEscan competition binding, inhibition of MAP3K3” value (select kinases; kinase MAP3K3) was “No Inhibition (“No Inhibition” refers to less than 50% inhibition)” and the “KINOMEscan competition binding, inhibition of MAP3K15” value (select kinases; kinase MAP3K15) was “No Inhibition (“No Inhibition” refers to less than 50% inhibition)”. For the same compound, the “KINOMEscan competition binding, inhibition of MEK5” value (select kinases; kinase MEK5) was “No Inhibition (“No Inhibition” refers to less than 50% inhibition)”, the “KINOMEscan competition binding, inhibition of MKNK2” value (select kinases; kinase MKNK2) was “No Inhibition (“No Inhibition” refers to less than 50% inhibition)” and the “KINOMEscan competition binding, inhibition of NEK1” value (select kinases; kinase NEK1) was “No Inhibition (“No Inhibition” refers to less than 50% inhibition)”. The “KINOMEscan competition binding, inhibition of NEK5” value (select kinases; kinase NEK5) was “No Inhibition (“No Inhibition” refers to less than 50% inhibition)”, the “KINOMEscan competition binding, inhibition of PIK3C2B” value (select kinases; kinase PIK3C2B) was “No Inhibition (“No Inhibition” refers to less than 50% inhibition)” and the “KINOMEscan competition binding, inhibition of RIOK2” value (select kinases; kinase RIOK2) was “No Inhibition (“No Inhibition” refers to less than 50% inhibition)”. The “KINOMEscan competition binding, inhibition of RIPK1” value (select kinases; kinase RIPK1) was “No Inhibition (“No Inhibition” refers to less than 50% inhibition)”, the “KINOMEscan competition binding, inhibition of RIPK2” value (select kinases; kinase RIPK2) was “No Inhibition (“No Inhibition” refers to less than 50% inhibition)” and the “KINOMEscan competition binding, inhibition of RIPK5” value (select kinases; kinase RIPK5) was “No Inhibition (“No Inhibition” refers to less than 50% inhibition)”. For the same compound, the “KINOMEscan competition binding, inhibition of TESK1” value (select kinases; kinase TESK1) was “No Inhibition (“No Inhibition” refers to less than 50% inhibition)”, the “KINOMEscan competition binding, inhibition of TIE2” value (select kinases; kinase TIE2) was “No Inhibition (“No Inhibition” refers to less than 50% inhibition)” and the “KINOMEscan competition binding, inhibition of TRKA” value (select kinases; kinase TRKA) was “No Inhibition (“No Inhibition” refers to less than 50% inhibition)”. For the same compound, the “KINOMEscan competition binding, inhibition of TRKB” value (select kinases; kinase TRKB) was “No Inhibition (“No Inhibition” refers to less than 50% inhibition)”, the “KINOMEscan competition binding, inhibition of TRKC” value (select kinases; kinase TRKC) was “No Inhibition (“No Inhibition” refers to less than 50% inhibition)” and the “KINOMEscan competition binding, inhibition of VRK2” value (select kinases; kinase VRK2) was “No Inhibition (“No Inhibition” refers to less than 50% inhibition)”. The “KINOMEscan competition binding, inhibition of YANK1” value (select kinases; kinase YANK1) was “No Inhibition (“No Inhibition” refers to less than 50% inhibition)”, the “KINOMEscan competition binding, inhibition of YANK2” value (select kinases; kinase YANK2) was “No Inhibition (“No Inhibition” refers to less than 50% inhibition)” and the “KINOMEscan competition binding, inhibition of YSK4” value (select kinases; kinase YSK4) was “No Inhibition (“No Inhibition” refers to less than 50% inhibition)”. For the same compound, the Kinase selectivity (select kinases; versus Example 9 and GSK2656157, KINOMEscan, Treespot analysis) was “more selective”, the IC50 [1] was 26 to 50 nM and the IC50 [2] was 1 to 25 nM.
